Assays:
Rice [1] = experiment: Seed treatment of rice in vitro (plates); format: in vivo; settings: seed coating 10^−6 M; 33 days; vs ethanol control; FIG. 10
Protocol: Rice seeds were sterilized using 2% bleach. The sterilized seeds were then divided among 3 treatment groups of 10 seeds each into 15 ml falcon tubes. To the control tube, 0.5% ethanol in water was added. To the CO4 tube, 100 μl of 10^−6 M CO4 solution was added. To the CO8 tube, 100 μl of 10^−6 M CO8 solution was added. Each tube was then shaken to coat the seeds. The coated seeds were then placed on sterile Petri dishes in a hood and were left to dry overnight in the hood. The seeds were then germinated on damp germination paper in sterile Petri dishes for 5 days. The resulting seedlings were transferred to Fahräeus medium plates containing damp germination paper, and the plates were wrapped in Parafilm®. The roots part of the plate was covered with aluminum foil. The plants were grown at room temperature under continuous light for 33 days. The length of the shoot and root systems was measured for all plants.

Hard Red Spring Wheat = experiment: Seed treatment of hard red spring wheat in pots; format: in vivo; settings: seed coating 125 μl of 10^−6 M, 2 weeks after planting
Protocol: (§1) Five grams of hard red spring wheat seeds were added to three separate 50 ml tubes. A water solution containing 0.5% ethanol was added to the control tube, 125 μl of 10^−6 M CO4 solution was added to the CO4 tube, and 125 μl of 10^−6 M CO8 solution was added to the CO8 tube. Each tube was then shaken to coat the seeds. Seeds were potted immediately following treatment into moistened SUNGRO® potting mix in 4×6×6 cm pots. Plants were watered by pouring water into the tray containing the pots up to about ¾ inch high. After sowing the seeds, the pots were randomly distributed (16 pots per treatment) throughout the tray and placed underneath continuous light at room temperature for 1 week. Liquid Fahräeus medium (plant fertilizer solution; see above) was applied every 2 days or when necessary. After a week, the pots were placed underneath 10 h light and 14 h dark cycle at room temperature for 1 week. After 1 week underneath 10 h light and 14 h dark cycle (2 weeks after planting), the plants were carefully removed from the pots, and as much soil as possible was shaken off. The remaining soil was removed by submerging the root system into a beaker of water. The number of primary roots (PR), lateral roots (LR), root system length (RSL) and dry weight (DW) was then measured for all plants.

M. truncatula = experiment: Lateral root emergence in M. truncatula; format: in vivo, Medicago truncatula; settings: 10^−7 M; fold induction relative to the control; FIG. 7
Protocol: M. truncatula roots were treated with 10^−7 M CO4 or 10^−7 M NS-LCO and the effect on lateral root emergence was measured. The numbers in parentheses indicate the number of plants analyzed. The significance of the difference to the […] control plants, as measured using a t-test, is indicated. The treatments are measured as fold induction relative to the control. Error bars represent the standard error.
Accordingly, the disclosed method is limited in scope to treating non-leguminous plants, or seeds, seedlings or plant parts thereof.

Rice [2] = experiment: Foliar treatment of rice; format: in vivo; settings: foliar 10^−6 M with 0.05% Silwet L-77; for shoot length: FIG. 12A
Protocol: Rice seeds were surface sterilized using 2% bleach. Seeds were then germinated on damp germination paper in sterile Petri dishes for 5 days. The seedlings were then transferred to Fahraeus medium plates containing damp germination paper. The plates were wrapped in Parafilm®, and the roots part of the plate covered with aluminum foil.
The plants were grown at room temperature under continuous light for 21 days. The plants were then transferred to moistened SUNGRO® soil pots (8×8×10 cm) and grown for 3 days under greenhouse condition. The plants were hydrated by pouring water into the tray underneath the pots.
The soil surface was then covered with plastic wrap to prevent any liquid droplets from contacting the soil. Using painting brushes, the front, and back of the plant leaves were treated with 3 ml of chitin derived compounds (CO4 and CO8) at 10^−6 M or a control (0.5% ethanol), each including 0.05% of Silwet L-77 (surfactant). Eleven plants were treated with each solution. The plants were subsequently grown for 14 days, and the shoot length was measured. Once a week, half-strength Hoagland solution was added into the trays underneath the pots. The plants were grown for another 4 days, and the lengths of the shoot and root systems were measured.

corn (maize) = experiment: Seed treatment of corn in pots; format: in vivo; settings: seed coating 125 μl of 10^−6 M, 2 weeks after planting
Protocol: as §1, with “corn (maize)” for “hard red spring wheat”

[3] = tested on: pea (the legume Pisum sativum); experiment: Seed treatment of pea in pots; format: in vivo; settings: seed coating 125 μl of 10^−6 M, 2 weeks after planting, * significant at P < 0.05
Protocol: Five grams of pea seeds (the legume Pisum sativum) were added to three separate 50 ml tubes. A water solution containing 0.5% ethanol was added to the control tube, 125 μl of 10^−6M CO4 solution was added to the CO4 tube, and 125 μl of 10^−6 M CO8 solution was added to the CO8 tube. Each tube was then shaken to coat the seeds. Seeds were potted immediately following treatment into moistened SUNGRO® potting mix in 4×6×6 cm pots. Plants were watered by pouring water into the tray containing the pots up to about ¾ inch high. After sowing the seeds, the pots were randomly distributed (16 pots per treatment) throughout the tray and placed underneath continuous light at room temperature for 1 week. Liquid Fahräeus medium (plant fertilizer solution; see above) was applied every 2 days or when necessary. After a week, the pots were placed underneath 10 h light and 14 h dark cycle at room temperature for 1 week. After 1 week underneath 10 h light and 14 h dark cycle (2 weeks after planting), the plants were carefully removed from the pots, and as much soil as possible was shaken off. The remaining soil was removed by submerging the root system into a beaker of water. The number of primary roots (PR), lateral roots (LR), root system length (RSL) and dry weight (DW) were then measured for all plants.

Structure (SMILES) | root system length (Rice [1]) | shoot length (Rice [1]) | Number of Lateral Roots (Hard Red Spring Wheat) | Number of Primary Roots (Hard Red Spring Wheat) | Root System Length (cm) (Hard Red Spring Wheat) | lateral root emergence (M. truncatula) | shoot length (Rice [2]; day 14 after treatment) | shoot length (Rice [2]; day 18 after treatment) | root system length (Rice [2]; day 18 after treatment, FIG. 12B) | Average Dry Weight (corn (maize)) | Average Root System Length (corn (maize)) | Average Seminal Roots (corn (maize)) | Average Lateral Roots [3] | Average Primary Roots [3]
CC(=O)N[C@H]1[C@H](O[C@H]2[C@H](O)[C@@H](NC(C)=O)C(O)O[C@@H]2CO)O[C@H](CO)[C@@H](O[C@@H]2O[C@H](CO)[C@@H](O[C@@H]3O[C@H](CO)[C@@H](O)[C@H](O)[C@H]3NC(C)=O)[C@H](O)[C@H]2NC(C)=O)[C@@H]1O (some centres unmarked) [CO4, tetra-N-acetylchitotetraose] | significantly increased | significantly increased | 16.25 | 3.15 | 11.75 | could not induce lateral root emergence | significantly increased | significance was even higher | significantly promoted | 0.1225 | 23.76 | 4.45 |  | 
CC(=O)N[C@H]1[C@H](O[C@H]2[C@H](O)[C@@H](NC(C)=O)[C@H](O[C@H]3[C@H](O)[C@@H](NC(C)=O)[C@H](O[C@H]4[C@H](O)[C@@H](NC(C)=O)C(O)O[C@@H]4CO)O[C@@H]3CO)O[C@@H]2CO)O[C@H](CO)[C@@H](O[C@@H]2O[C@H](CO)[C@@H](O[C@@H]3O[C@H](CO)[C@@H](O[C@@H]4O[C@H](CO)[C@@H](O[C@@H]5O[C@H](CO)[C@@H](O)[C@H](O)[C@H]5NC(C)=O)[C@H](O)[C@H]4NC(C)=O)[C@H](O)[C@H]3NC(C)=O)[C@H](O)[C@H]2NC(C)=O)[C@@H]1O (some centres unmarked) [CO8, octa-N-acetyl-chitooctaose] |  |  | 14.30 | 3.35 | 12.22 |  |  |  |  | 0.1229 | 21.42 | 4.75 | significantly decreased | significantly decreased

Source: patent publication US10149472B2, “Chitin oligomers for use in promoting non-leguminous plant growth and development” (Wisconsin Alumni Research Foundation, priority 2015, dated 2018)
